In patent US7732599B2, “Process for preparing tetrahydrobiopterin and analogs of tetrahydrobiopterin” (BioMarin Pharmaceutical Inc., priority 2003, dated 2010):

Assay: Solubility in the reaction solvent dimethylaminoacetate at room temperature
Type: physicochemical
Settings: described as low solubility
Experimental: The conversion of the primary hydroxyl of L-Neopterin to a thioether was performed to prepare 6-((1R,2R)-1,2-dihydroxy-3-phenylthiopropyl)-2-[(methylethyl)amino]-3-hydropteridin-4-one (the compound labeled “15” in FIG. 4). To a flask containing 50 grams of 6-((2S,1R)-1,2,3-trihydroxypropyl)-2-[(1Z)-1-aza-2-(dimethylamino)vinyl]-3-hydropteridin-4-one (DMA-Neopterin, the compound labeled “6” in FIG. 2) and 400 ml of dimethylaminoacetate was added to the flask. To this stirring mixture 1 molar equivalent of diphenyl disulfide and tributylphosphine were added to the flask. […] It is believed that the thioether product is more soluble in dimethylaminoacetate. The reaction mixture was allowed to was allowed to stir for 4 hours at room temperature. Nine grams of the thioether product was isolated.

In the case of CN(C)C=Nc1nc2ncc([C@@H](O)[C@@H](O)CO)nc2c(=O)[nH]1 [DMA-Neopterin, 6-((2S,1R)-1,2,3-trihydroxypropyl)-2-[(1Z)-1-aza-2-(dimethylamino)vinyl]-3-hydropteridin-4-one], the solubility in dimethylaminoacetate is reported as “approximately 3.5 mg/ml”.
